Molecular target: T1, DT-Bgl (Anoxybacillus gonensis, UniProt M5QUM2)
T1 construct: full-length ORF, 453 residues (no signal peptide), pET-28a BamHI/XhoI, Ni-NTA purified (His tag, removal not mentioned), E. coli BL21(DE3), 53 kDa on SDS-PAGE
Assay: HPLC of cellobiose hydrolysis with added glucose
Assay type: biochemical
Settings: 400000 µM; substrate cellobiose (1% w/v in substrate assay), 100 mM glycine-NaOH pH 8.5, 60 °C; product inhibition

- % relative activity in 0.4 M glucose: 54%
Compound: OC[C@H]1OC(O)[C@H](O)[C@@H](O)[C@@H]1O (stereo partly shown) [glucose]
